The source of these data is ChEMBL document CHEMBL1132056, “First hydroxamate inhibitors for carboxypeptidase A. N-acyl-N-hydroxy-beta-phenylalanines” (Bioorg Med Chem Lett, 1999).

Structures are written as SMILES.

The test addresses T1, Carboxypeptidase A1 (Homo sapiens, UniProt P15085).
T1 sequence (P15085 whole entry): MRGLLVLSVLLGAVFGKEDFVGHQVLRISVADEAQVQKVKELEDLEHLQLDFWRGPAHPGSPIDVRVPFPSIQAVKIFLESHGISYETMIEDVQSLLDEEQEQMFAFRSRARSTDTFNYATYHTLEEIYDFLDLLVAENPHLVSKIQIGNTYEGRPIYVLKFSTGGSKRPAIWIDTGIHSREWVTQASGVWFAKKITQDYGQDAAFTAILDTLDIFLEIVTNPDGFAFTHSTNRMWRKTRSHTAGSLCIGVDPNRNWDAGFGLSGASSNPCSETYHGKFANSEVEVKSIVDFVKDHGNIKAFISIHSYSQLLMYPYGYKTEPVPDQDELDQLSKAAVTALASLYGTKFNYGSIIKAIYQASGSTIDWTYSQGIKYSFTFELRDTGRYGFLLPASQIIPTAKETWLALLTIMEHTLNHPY
Nature of the test: Compound was tested for its inhibitory activity against carboxypeptidase A (CPA).
What is called Ki is the dissociation constant of the complex between target and ligand, obtained from inhibition or displacement. Low values mean higher affinity, high ones lower affinity. For `O=CN(O)CC(Cc1ccccc1)C(=O)O` (centres undefined), the inhibition constant Ki stood at 0.98 µM.

Turning to `O=C(O)C(Cc1ccccc1)CN(O)C(=O)CCCc1ccccc1` (centres undefined), the Ki was found to be 1.16 µM. In the case of `O=C(O)C(Cc1ccccc1)CN(O)C(=O)CCc1ccccc1` (centres undefined) it was 1.2 µM; in that of `CCC(=O)N(O)CC(Cc1ccccc1)C(=O)O` (centres undefined), 5.82 µM. `O=CN(O)C[C@@H](Cc1ccccc1)C(=O)O`: the affinity corresponds to a Ki of 0.56 µM. In the case of `O=CN(O)C[C@H](Cc1ccccc1)C(=O)O` it was 4.95 µM; in that of `O=C(O)C(Cc1ccccc1)CN(O)C(=O)Cc1ccccc1` (centres undefined), 0.32 µM. On to `CC(=O)N(O)CC(Cc1ccccc1)C(=O)O` (centres undefined), for which the Ki is 5.9 µM. As to `O=C(O)C(Cc1ccccc1)CN(O)C(=O)c1ccccc1` (centres undefined), the affinity corresponds to a Ki of 6.5 µM.
